# System: Hedgehog signaling pathway
# Test: Gli-Luc luciferase reporter gene assay in C3H10T1/2/Gli-Luc cells under Shh-N stimulation
# Type: cell-based
# Settings: Mus musculus, C3H 10T1/2, 24 h, luciferase RLU, read-out: biological activity: IC50 of the inhibitory activities of compounds on the hedgehog pathway
# Outline: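 C3H10T1/2 cells stably carrying a Gli-responsive luciferase reporter were stimulated with 30 nM Shh-N conditioned medium plus compound (7-point dilutions, duplicate) for 24 h at 37 °C. Luciferase luminescence read from lysates; IC50 by sigmoidal fit of RLU versus log concentration.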
row,IC50,Compound
1,50 to 100 nM,"C[C@@H]1CN(c2ccc(-c3cnc4c(-c5ccc(C#N)cc5)cccc4c3Cl)cc2)C[C@H](C)O1 [Embodiment 118, 4-(4-chloro-3-(4-((2S,6R)-2,6-dimethylmorpholino)phenyl)quinolin-8-yl)benzonitrile]"
2,50 to 100 nM,"C[C@@H]1CN(c2ccc(-c3cnc4c(-c5ccc(C#N)cc5)cccc4c3N(C)C)cc2)C[C@H](C)O1 [Embodiment 119, 4-(4-(dimethylamino)-3-(4-((2S,6R)-2,6-dimethylmorpholino)phenyl)quinolin-8-yl) benzonitrile]"
3,500 to 1000 nM,"C[C@@H]1CN(c2ccc(-c3cnc4c(-c5ccc(C#N)cc5)cccc4c3S(C)(=O)=O)cc2)C[C@H](C)O1 [Embodiment 120, 4-(3-(4-((2S,6R)-2,6-dimethylmorpholino)phenyl)-4-(methylsulfonyl)quinolin-8-yl) benzonitrile]"
4,≤ 50 nM,"C[C@@H]1CN(c2ccc(-c3cnc4c(-c5ccc(C#N)cc5)cccc4c3C3CC3)cc2)C[C@H](C)O1 [Embodiment 121, 4-(4-cyclopropyl-3-(4-((2S,6R)-2,6-dimethylmorpholino)phenyl)quinolin-8-yl) benzonitrile]"
5,50 to 100 nM,Cc1c(-c2ccc(N3C[C@@H](C)O[C@@H](C)C3)cc2)cnc2c(-c3ccc(C#N)cc3)cccc12 [Embodiment 122]
6,50 to 100 nM,C[C@@H]1CN(c2ccc(-c3cnc4c(-c5ccc(C#N)cc5)cccc4c3C#N)cc2)C[C@H](C)O1 [Embodiment 124]
7,100 to 500 nM,"C[C@@H]1CN(c2ccc(-c3cnc4c(-c5ccc(C#N)cc5)cccc4c3N3CCC3)cc2)C[C@H](C)O1 [Embodiment 126, 4-(4-(azetidin-1-yl)-3-(4-((2S,6R)-2,6-dimethylmorpholino)phenyl)quinolin-8-yl) benzonitrile]"
8,100 to 500 nM,"C[C@@H]1CN(c2ccc(-c3cnc4c(-c5ccc(C#N)cc5)cccc4c3)cc2)C[C@H](C)O1 [Embodiment 127, 4-(3-(4-((2S,6R)-2,6-dimethylmorpholino)phenyl)quinolin-8-yl)benzonitrile]"
9,500 to 1000 nM,"COC(=O)c1c(-c2ccc(N3C[C@@H](C)O[C@@H](C)C3)cc2)cnc2c(-c3ccc(C#N)cc3)cccc12 [Embodiment 128, methyl 8-(4-cyanophenyl)-3-(4-((2S,6R)-2,6-dimethylmorpholino)phenyl)quinoline-4-carboxylate]"
10,50 to 100 nM,"CC(=O)Nc1c(-c2ccc(N3C[C@@H](C)O[C@@H](C)C3)cc2)cnc2c(-c3ccc(C#N)cc3)cccc12 [Embodiment 129, N-(8-(4-cyanophenyl)-3-(4-((2S,6R)-2,6-dimethylmorpholino)phenyl)quinolin-4-yl) acetamide]"
11,500 to 1000 nM,C[C@@H]1CN(c2ccc(-c3cnc4c(-c5ccc(C#N)cc5)cccc4c3NS(C)(=O)=O)cc2)C[C@H](C)O1 [Embodiment 130]
12,100 to 500 nM,"COc1c(-c2ccc(N3C[C@@H](C)O[C@@H](C)C3)cc2)c(C(F)(F)F)nc2c(-c3ccc(C#N)cc3)cccc12 [Embodiment 141, 4-(3-(4-((2S,6R)-2,6-dimethylmorpholino)phenyl)-4-methoxy-2-(trifluoromethyl)quinolin-8-yl)benzonitrile]"
13,≤ 50 nM,"CCOc1c(-c2ccc(N3C[C@@H](C)O[C@@H](C)C3)cc2)cnc2c(-c3ccc(C#N)cc3)cccc12 [Embodiment 143, 4-(3-(4-((2S,6R)-2,6-dimethylmorpholino)phenyl)-4-ethoxyquinolin-8-yl)benzonitrile]"
14,100 to 500 nM,CC(C)Oc1c(-c2ccc(N3C[C@@H](C)O[C@@H](C)C3)cc2)cnc2c(-c3ccc(C#N)cc3)cccc12 [Embodiment 144]
15,≤ 50 nM,C[C@@H]1CN(c2ccc(-c3cnc4c(-c5ccc(C#N)cc5)cccc4c3OC(F)F)cc2)C[C@H](C)O1 [Embodiment 145]
16,500 to 1000 nM,C[C@@H]1CN(c2ccc(-c3cnc4c(-c5ccc(C#N)cc5)cccc4c3OCCN(C)C)cc2)C[C@H](C)O1 [Embodiment 146]
17,500 to 1000 nM,"C[C@@H]1CN(c2ccc(-c3c([O-])c4cccc(-c5ccc(C#N)cc5)c4n[n+]3C)cc2)C[C@H](C)O1 [Embodiment 150, 8-(4-cyanophenyl)-3-(4-((2R,6S)-2,6-dimethylmorpholino)phenyl)-2-methylcinnolin-2-ium-4-olate]"
18,≤ 50 nM,"COc1c(-c2ccc(N3C[C@@H](C)O[C@@H](C)C3)cc2)nnc2c(-c3ccc(C#N)cc3)cccc12 [Embodiment 152, 4-(3-(4-((2R,6S)-2,6-dimethylmorpholino)phenyl)-4-methoxycinnolin-8-yl) benzonitrile]"

# Continued, compound first:
row,Compound,IC50
1,"COc1c(-c2ccc(N3C[C@@H](C)O[C@@H](C)C3)cc2)cnc2c(-c3nc4ccccc4[nH]3)cccc12 [Embodiment 114, (2S,6R)-4-(4-(8-(1H-benzo[d]imidazol-2-yl)-4-methoxyquinolin-3-yl)phenyl)-2,6-dimethylmorpholine]",1000 to 5000 nM
2,"COc1c(-c2ccc(N3C[C@@H](C)O[C@@H](C)C3)cc2)cnc2c(-c3nc(C#N)cs3)cccc12 [Embodiment 115, 2-(3-(4-((2S,6R)-2,6-dimethylmorpholino)phenyl)-4-methoxyquinolin-8-yl)thiazole-4-carbonitrile]",1000 to 5000 nM
3,"COc1c(-c2ccc(N3C[C@@H](C)O[C@@H](C)C3)cc2)cnc2c(C3CCC(C#N)CC3)cccc12 (stereo partly drawn) [Embodiment 116, 4-(3-(4-((2S,6R)-2,6-dimethylmorpholino)phenyl)-4-methoxyquinolin-8-yl) cyclohexane carbonitrile]",100 to 500 nM
4,"COc1c(-c2ccc(N3C[C@@H](C)O[C@@H](C)C3)nc2)cnc2c(NC(=O)C(C)(C)C)cccc12 [Embodiment 117, N-(3-(6-((2S,6R)-2,6-dimethylmorpholino)pyridin-3-yl)-4-methoxyquinolin-8-yl) pivalamide]",1000 to 5000 nM
5,Cc1cc(C#N)ccc1-c1cccc2c(C3CC3)c(-c3ccc(N4C[C@@H](C)O[C@@H](C)C4)nc3)cnc12 [Embodiment 125],≤ 50 nM
6,"Cc1c(-c2ccc(N3C[C@@H](C)O[C@@H](C)C3)nc2)cnc2c(-c3ccc(C#N)cc3)cccc12 [Embodiment 132, 4-(3-(6-((2S,6R)-2,6-dimethylmorpholino)pyridin-3-yl)-4-methylquinolin-8-yl) benzonitrile]",≤ 50 nM
7,CCc1c(-c2ccc(N3C[C@@H](C)O[C@@H](C)C3)nc2)cnc2c(-c3ccc(C#N)cc3)cccc12 [Embodiment 133],≤ 50 nM
8,C[C@@H]1CN(c2ccc(-c3cnc4c(-c5ccc(C#N)cc5)cccc4c3C3CC3)cn2)C[C@H](C)O1 [Embodiment 134],≤ 50 nM
9,"COc1c(-c2ccc(N3C[C@@H](C)O[C@@H](C)C3)cc2)cnc2c(-c3ccc(C#N)cc3)cc(Cl)cc12 [Embodiment 135, 4-(6-chloro-3-(4-((2S,6R)-2,6-dimethylmorpholino)phenyl)-4-methoxyquinolin-8-yl) benzonitrile]",100 to 500 nM
10,"COc1c(-c2ccc(N3CC(C)OC(C)C3)cc2)cnc2c(-c3ccc(C#N)cc3)cc(F)cc12 (stereo not drawn) [Embodiment 136, 4-(3-(4-(2,6-dimethylmorpholino)phenyl)-6-fluoro-4-methoxyquinolin-8-yl) benzonitrile]",50 to 100 nM
11,COc1c(-c2ccc(N3C[C@@H](C)O[C@@H](C)C3)cc2)cnc2c(-c3ccc(OC(F)(F)F)cc3)cc(F)cc12 [Embodiment 137],100 to 500 nM
12,COc1c(-c2ccc(N3C[C@@H](C)O[C@@H](C)C3)cc2)cnc2c(-c3ccc(C#N)cc3)ccc(F)c12 [Embodiment 138],≤ 50 nM
13,"C[C@@H]1CN(c2ccc(-c3cnc4c(-c5ccc(C#N)cc5)cccc4c3N3CCC3)cn2)C[C@H](C)O1 [Embodiment 139, 4-(4-(azetidin-1-yl)-3-(6-((2S,6R)-2,6-dimethylmorpholino)pyridin-3-yl)quinolin-8-yl) benzonitrile]",50 to 100 nM
14,"CCC(=O)N1[C@H](C)CN(c2ccc(-c3cnc4c(-c5ccc(C#N)cc5)cccc4c3O)cn2)C[C@@H]1C [Embodiment 140, 4-(3-(6-((3S,5R)-3,5-dimethyl-4-propionylpiperazin-1-yl)pyridin-3-yl)-4-hydroxyquinolin-8-yl)benzonitrile]",500 to 1000 nM
15,"COc1cc(-c2ccc(N3C[C@@H](C)O[C@@H](C)C3)cc2)nc2cccc(-c3ccc(C#N)cc3)c12 [Embodiment 142, 4-(2-(4-((2R,6S)-2,6-dimethylmorpholino)phenyl)-4-methoxyquinolin-5-yl) benzonitrile]",500 to 1000 nM
16,"COc1c(-c2ccc(N3C[C@@H](C)O[C@@H](C)C3)cc2)cnc2c(-c3ccc(C#N)cc3)ccnc12 [Embodiment 147, 4-(7-(4-((2S,6R)-2,6-dimethylmorpholino)phenyl)-8-methoxy-1,5-naphthyridin-4-yl) benzonitrile]",100 to 500 nM
17,"COc1c(-c2ccc(N3C[C@@H](C)O[C@@H](C)C3)cc2)cnc2c(-c3ccc(C#N)cc3)nccc12 [Embodiment 148, 4-(3-(4-((2S,6R)-2,6-dimethylmorpholino)phenyl)-4-methoxy-1,7-naphthyridin-8-yl) benzonitrile]",50 to 100 nM
18,"CCC(=O)N1[C@H](C)CN(c2ccc(-c3cnc4c(-c5ccc(C#N)cc5)nccc4c3OC)cn2)C[C@@H]1C [Embodiment 149, 4-(3-(6-((3S,5R)-3,5-dimethyl-4-propionylpiperazizin-1-yl)pyridin-3-yl)-4-methoxy-1,7-naphthyridin-8-yl)benzonitrile]",≤ 50 nM
19,"CCC(=O)N1[C@H](C)CN(c2ccc(-c3nnc4c(-c5ccc(C#N)cc5)cccc4c3OC)cn2)C[C@@H]1C [Embodiment 151, 4-(3-(6-(3,5-dimethyl-4-propionylpiperazin-1-yl)pyridin-3-yl)-4-methoxycinnolin-8-yl)benzonitrile]",≤ 50 nM
20,"C[C@@H]1CN(c2ccc(-c3cnc4c(-c5ccc(C#N)cc5)cncc4c3Cl)cc2)C[C@H](C)O1 [Embodiment 153, 4-(4-chloro-3-(4-((2S,6R)-2,6-dimethylmorpholino)phenyl)-1,6-naphthyridin-8-yl) benzonitrile]",100 to 500 nM
21,"C[C@@H]1CN(c2ccc(-c3cnc4c(-c5ccc(C#N)cc5)cncc4c3N(C)C)cc2)C[C@H](C)O1 [Embodiment 155, 4-(4-(dimethylamino)-3-(4-((2S,6R)-2,6-dimethylmorpholino)phenyl)-1,6-naphthyridin-8-yl)benzonitrile]",100 to 500 nM

# Source: patent US9938292B2 (GUANGDONG ZHONGSHENG PHARMACEUTICAL CO., LTD, priority 2014, dated 2018)
